In assay [1] the test system is KB 3-1. In words: Cytotoxicity (1 ug/mL) was evaluated against KB-3-1 cell lines by observing the effect on growth of cells tested. It is filed as functional, Homo sapiens.
The subject of assay [2] is KB-C2. Kind of assay: Inhibition of growth of KB-C2 cells at the dose of 1 ug/mL of compound in presence of 0.1 ug/mL of colchicine.
The test system of assay [3] is KB-C2. In words: Inhibition of growth of KB-C2 cells at the dose of 3 ug/mL of compound in presence of 0.1 ug/mL of colchicine.
Assay [4] concerns KB-C2. Kind of assay: Inhibition of growth of KB-C2 cells at the dose of 10 ug/mL of compound in presence of 0.1 ug/mL of colchicine.
Assay [5] deals with KB 3-1. Kind of assay: Cytotoxicity (10 ug/mL) was evaluated against KB-3-1 cell lines by observing the effect on growth of cells tested. It is filed as functional, Homo sapiens.
Assay [6] deals with KB 3-1. In words: Cytotoxicity (3 ug/mL) was evaluated against KB-3-1 cell lines by observing the effect on growth of cells tested. The class given is functional, Homo sapiens.

Experimental findings from ChEMBL document CHEMBL1132827, “New multidrug resistance modulators from Atractylodis Lanceae Rhizoma” (2000) are described below.

Usually Inhibition stands for how much of the control response was suppressed.

`CC(C)CC(=O)OC[C@H]1O[C@@](COC(=O)CC(C)C)(O[C@@H]2O[C@H](CO)[C@@H](O)[C@H](O)[C@H]2OC(=O)CC(C)C)[C@@H](OC(=O)CC(C)C)[C@@H]1O.CC[C@@H](C)C(=O)OC[C@@]1(O[C@@H]2O[C@H](CO)[C@@H](O)[C@H](O)[C@H]2OC(=O)CC(C)C)O[C@H](COC(=O)CC(C)C)[C@@H](O)[C@@H]1OC(=O)CC(C)C`: the Inhibition with KB 3-1 [1] came to 17%; in the assay on KB-C2 [2] it was 23%; with KB-C2 [3], 32%; with KB-C2 [4] it was 33%; with KB 3-1 [5], 20%; in the assay with KB 3-1 [6], 19%.

For `CC(C)CC(=O)OC[C@H]1O[C@@](COC(=O)C(C)C)(O[C@@H]2O[C@H](CO)[C@@H](O)[C@H](O)[C@H]2OC(=O)CC(C)C)[C@@H](OC(=O)CC(C)C)[C@@H]1OC(=O)CC(C)C.CC(C)CC(=O)OC[C@H]1O[C@@](COC(=O)CC(C)C)(O[C@@H]2O[C@H](CO)[C@@H](O)[C@H](O)[C@H]2OC(=O)CC(C)C)[C@@H](OC(=O)CC(C)C)[C@@H]1OC(=O)C(C)C.CC[C@@H](C)C(=O)OC[C@@]1(O[C@@H]2O[C@H](CO)[C@@H](O)[C@H](O)[C@H]2OC(=O)CC(C)C)O[C@H](COC(=O)CC(C)C)[C@@H](OC(=O)C(C)C)[C@@H]1OC(=O)CC(C)C.CC[C@@H](C)C(=O)O[C@@H]1[C@@H](COC(=O)CC(C)C)O[C@@](COC(=O)C(C)C)(O[C@@H]2O[C@H](CO)[C@@H](O)[C@H](O)[C@H]2OC(=O)CC(C)C)[C@H]1OC(=O)CC(C)C`, the Inhibition with KB 3-1 [1] was found to be 6%; in the assay with KB-C2 [2] it was 38%; in the assay on KB-C2 [3], 83%; in the assay with KB-C2 [4], 96%; in the assay on KB 3-1 [5] it was 94%; in the assay on KB 3-1 [6], 13%.

As for `CC(C)CC(=O)OC[C@H]1O[C@@](COC(=O)CC(C)C)(O[C@H]2O[C@H](CO)[C@@H](O)[C@H](O)[C@H]2OC(=O)CC(C)C)[C@@H](OC(=O)CC(C)C)[C@@H]1OC(=O)CC(C)C.CC[C@@H](C)C(=O)OC[C@@]1(O[C@H]2O[C@H](CO)[C@@H](O)[C@H](O)[C@H]2OC(=O)CC(C)C)O[C@H](COC(=O)CC(C)C)[C@@H](OC(=O)CC(C)C)[C@@H]1OC(=O)CC(C)C.CC[C@@H](C)C(=O)O[C@@H]1[C@@H](COC(=O)CC(C)C)O[C@@](COC(=O)CC(C)C)(O[C@H]2O[C@H](CO)[C@@H](O)[C@H](O)[C@H]2OC(=O)CC(C)C)[C@H]1OC(=O)CC(C)C`, the Inhibition in the assay with KB 3-1 [1] was found to be 11%; in the assay on KB-C2 [2], 57%; in the assay with KB-C2 [3], 86%; with KB-C2 [4], 96%; in the assay with KB 3-1 [5], 95%; in the assay on KB 3-1 [6] it was 14%.
